Assay results reported in PMC8850458, “The AUTOTAC chemical biology platform for targeted protein degradation via the autophagy-lysosome system” (Nature Communications, 2022).
Several values for one entry are separate records, joined by “and”; a condition that tells them apart may be missing. Identical values can stand only once. Like-named read-outs stand apart in the source and are kept apart here.

How the values were obtained:
ACHN cells [1] = test: WST-based cell viability assay in ACHN cells; conditions: ACHN, duplicates
[2] = WST-based cell viability assay in ACHN cells; conditions: human, ACHN cells; for viability at 0.01 µM / viability at 0.1 µM / viability at 1 µM / viability at 10 µM / viability at 50 µM / viability at 100 µM: ACHN
[3] = test system: p62-positive and WIPI2-positive punctate structures; test: ICC of WIPI2-p62 co-localization in HeLa cells; format: cell-based; conditions: HeLa expressing WIPI2-GFP, 2.5 μM, 6 h
Description: (§1) Cells were cultured on coverslips coated with poly-L-lysine (Sigma) to observe cellular localization of proteins. Using 4% paraformaldehyde in PBS (pH 7.4), the cells were fixed for 15 min at room temperature and washed three times for 5 min with PBS. After fixing, the cells were permeabilized with 0.5% Triton X-100 in PBS solution for 15 min and washed three times with PBS for 5 min. The cells were blocked containing 2% BSA in PBS solution for 1 h at room temperature. Subsequently, the cells were incubated with primary antibody diluted in 2% BSA/PBS solution overnight at 4 °C, followed by washing the cells three times for 10 min with PBS and incubated with Alexa Fluor-conjugated secondary antibody diluted in 2% BSA/PBS for 30 min at room temperature. Using a DAPI-containing mounting medium (Vector Laboratories), the coverslips were mounted on glass slides. Confocal images were taken by laser scanning confocal microscope 510 Meta (Zeiss) and analyzed by Zeiss LSM Image Browser (ver. 4.2.0.121). […] Quantification results are shown as mean ± S.D. or S.E.M. of three independent experiments
Supplementary Fig. 2. Characterization of p62-ZZ ligands (a, c, e) 3-D modeling of p62 […]
μM, 6 h). (m) Quantification of l for co-localization (n=3, 50 cells). Scale bar, 10 µm. (n) […]

[4] = test system: autophagic turnover of p62 and LC3; test: Autophagic flux assay in HeLa cells with or without HCQ; format: cell-based; conditions: 2.5 μM, 24 h, with or without HCQ 10 µM 24 h
Description: Fig. 1 Nt-Arg-mimicking p62-ZZ ligands activate p62-dependent selective macroautophagy. a A model illustrating the mode of action of autophagy-targeting ligands. b Chemical structures of autophagy-targeting ligands. c In vitro pulldown assay in HEK293T cells of the 12-mer V-BiP peptide or autophagy-targeting ligands. d In vitro p62 oligomerization assay in HEK293T cells incubated with the p62-ZZ ligands in (b). e ICC of HeLa cells treated with p62-ZZ ligands in (b) (2.5 μM, 24 h). Scale bar, 10 μm. f, g Quantification of (e) for puncta formation and co-localization, respectively (n = 3 biologically independent experiments each counting 50 cells). h A schematic/formulae for autophagy flux index. i Autophagic flux assay in HeLa cells treated with YOK-1304 or YTK-105 (2.5 μM, 24 h) in the presence or absence of HCQ (10 µM, 24 h). Data are presented as mean values ± SD where relevant. P-values (from a two-sided unpaired t test): ***P < 0.000956 (for p62 punctate formation), ***P < 0.000539 (for LC3 punctate formation), ***P < 0.000925 (for p62-LC3 co-localization). Source data are provided with this paper. TEXT PRINTED IN THE PICTURE: (i) YOK 1304: Normalized p62 A.F. index: 2.8; Normalized LC3 II/I A.F. index: 4.2 | (i) YTK 105: Normalized p62 A.F. index: 4.6; Normalized LC3 II/I A.F. index: 11.2
(§2) Adherent cells were washed with phosphate-buffered saline (PBS) and cell pellets were lysed in SDS-based sample buffer (277.8 mM Tris-HCI, pH 6.8, 4.4% LDS, 44.4% (v/v) glycerol) containing beta-mercaptoethanol. Alternatively, cell pellets or protein supernatants were lysed in 5X Laemmli sample buffer. Whole-cell lysates were separated using SDS-PAGE, and transferred onto polyvinyllidene difluoride membranes at 100 V for 2 h at 4 °C. The membrane was incubated with a blocking solution consisting 4% skim milk in PBS solution for 30 min at room temperature and incubated with primary antibodies overnight, followed by incubation with host-specific HRP-conjugated secondary antibodies (1:10000 dilution). For signal detection, the membrane was developed with a mixture of ECL solution (Thermo Fisher Scientific) using X-ray films. Densitometry of developed bands was measured and analyzed with ImageJ (NIH, Bethesda).

ACHN cells [5] = test: Wound healing assay in ACHN cells; format: cell-based; set-up: wound area / wound area, Average: unit not given here; conditions: ACHN, 5 μM; for wound area: N=1, N=2
Description: To analyze cell migration in two dimensions, U-87 MG or ACHN cells were plated to a monolayer. Cells were scratched with a sterile 10 μl pipette tip and the debris was removed using medium. Cells were treated with compounds and incubated for different time to monitor cell behavior. Photographs were obtained using a microscope at different time point.

[6] = test system: p62 and LC3 punctate structures; test: ICC of p62 and LC3 puncta formation and co-localization in HeLa cells; format: cell-based; conditions: 2.5 μM, 24 h
Description: as §1

p62 = target: T1, p62 (Homo sapiens, UniProt Q13501); test: In vitro p62 oligomerization assay; format: biochemical; conditions: HEK293T lysate
T1 construct: expressed in transfected cells; host or cells: HEK293T, transient; whole lysate used
Description: HEK293T cells were transiently transfected with a plasmid encoding p62-myc/his fusion proteins. Cells were resuspended in lysis buffer [50 mM HEPES (pH 7.4), 0.15 M KCl, 0.1% Nonidet P-40), 10% glycerol, containing a mixture of protease inhibitors and phosphatase inhibitor (Abcam)]. To lyse the cells, 10 cycles of freezing and thawing was done, followed by centrifugation at 13,000 × g for 20 min at 4 °C. Using a BCA assay, the protein concentration of the supernatant was measured. A total of 1 μg of protein was incubated with 1 mM of p62-ZZ ligands in the presence of 100 μM bestatin (Enzo) at room temperature for 2 h. After incubation, each sample was mixed with non-reducing 4X LDS sample buffer, heated at 95 °C for 10 min, and resolved using 4–20% gradient SDS-PAGE (Bio-Rad). To monitor the conversion of p62 monomers into oligomers or aggregates, IB assay was performed using anti-myc antibody.

Ub^+ and p62^+ puncta = test: ICC of Ub (FK2) and p62 puncta in HeLa cells; format: cell-based; conditions: 1 μM 24 h, autophagy inhibition (HCQ)
Description: Fig. 4 Targeted autophagic delivery and degradation of misfolded protein cargoes using AUTOTACs with aggregate-binding warhead. a A model illustrating the mode of action of aggregate-targeting AUTOTAC. b Chemical structures of PBA-1105, PBA-1106, Anle138b-F105 and PBA-1105b. c In vitro p62 oligomerization assay in HEK293T cells incubated with the indicated compounds in (b). d WB in HEK293T cells treated with MG132 (1 μM, 24 h), HCQ (10 μM, 24 h), PBA-1105, YTK-1105, and PBA (1 μM, 24 h). e Identical to (d), but with Anle-F105. f ICC of HeLa cells treated with HCQ (10 μM, 24 h), MG132 (2 μM, 18 h) or both in the presence of PBA-1106, YOK-1106 or PBA (1 μM, 24 h). Scale bar, 10 μm. g Quantification of (f) (n = 3, 50 cells). h ICC of HeLa cells treated with Anle138b-F105 (1 μM, 24 h). Scale bar, 10 μm. i Quantification of (h) (n = 3, 50 cells). When indicated, n = 3 biologically independent experiments each counting 50 cells. Data are presented as mean values ± SD where relevant. P-values (from a two-sided unpaired t test): ***P < 7.66E−05. Source data are provided with this paper.
as §1

tauP301L = tauP301L (Homo sapiens, UniProt P10636, P618L); test: WB degradation of tauP301L in SH-SY5Y-tauP301L cells; format: cell-based; conditions: SH-SY5Y-tauP301L cells
Description: as §2

[7] = duplicates, read-out: WST assay viability relative to con = 100
[8] = read-out: WST assay viability, AVG %

Sequence of tauP301L (P10636 1-441 isoform P10636-8 P301L): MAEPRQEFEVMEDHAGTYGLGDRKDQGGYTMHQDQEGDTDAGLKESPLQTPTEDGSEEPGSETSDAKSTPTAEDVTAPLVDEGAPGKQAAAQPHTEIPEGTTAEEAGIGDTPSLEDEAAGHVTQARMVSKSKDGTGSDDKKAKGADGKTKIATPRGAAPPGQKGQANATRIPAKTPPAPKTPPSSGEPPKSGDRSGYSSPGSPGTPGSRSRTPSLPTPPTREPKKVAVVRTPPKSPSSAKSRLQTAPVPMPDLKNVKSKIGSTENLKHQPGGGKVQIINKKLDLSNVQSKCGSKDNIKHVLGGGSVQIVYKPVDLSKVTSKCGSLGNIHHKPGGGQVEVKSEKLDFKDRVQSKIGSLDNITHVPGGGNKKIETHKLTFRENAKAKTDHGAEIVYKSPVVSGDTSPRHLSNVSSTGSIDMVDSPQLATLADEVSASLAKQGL
T1 sequence (Q13501 whole entry): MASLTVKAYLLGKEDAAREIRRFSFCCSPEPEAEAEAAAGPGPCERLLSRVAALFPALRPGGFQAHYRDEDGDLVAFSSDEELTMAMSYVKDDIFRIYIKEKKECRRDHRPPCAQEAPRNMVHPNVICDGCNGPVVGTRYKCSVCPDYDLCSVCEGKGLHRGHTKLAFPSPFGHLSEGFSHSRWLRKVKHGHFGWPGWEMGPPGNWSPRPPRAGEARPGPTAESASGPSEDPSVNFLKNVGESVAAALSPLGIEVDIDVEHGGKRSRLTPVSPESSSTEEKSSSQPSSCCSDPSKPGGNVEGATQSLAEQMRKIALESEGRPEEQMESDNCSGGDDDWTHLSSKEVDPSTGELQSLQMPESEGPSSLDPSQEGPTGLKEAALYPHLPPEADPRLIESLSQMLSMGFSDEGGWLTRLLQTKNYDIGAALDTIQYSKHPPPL

For `CC(C)NCC(O)COc1ccc(OCc2ccccc2)c(OCCCc2ccccc2)c1` (centres unmarked) [YOK-1304], the “WST assay raw reading” value (ACHN cells [1]; 0.01uM) was 0.964 and 0.955, the “WST assay viability relative to con = 100” value (ACHN cells [1]; 0.01uM) was 95.4624 and the “WST assay raw reading” value (ACHN cells [1]; 0.1uM) was 1.085 and 1.014. For the same compound, the “WST assay raw reading” value (ACHN cells [1]; 1uM) was 1.025 and 0.998, the “WST assay viability relative to con = 100” value (ACHN cells [1]; 1uM) was 100.423 and the “WST assay raw reading” value (ACHN cells [1]; 10uM) was 1.004 and 1.024. The “WST assay viability relative to con = 100” value (ACHN cells [1]; 10uM) was 103.422, the “WST assay raw reading” value (ACHN cells [1]; 50uM) was 1.153 and 1.063 and the “WST assay viability relative to con = 100” value (ACHN cells [1]; 50uM) was 107.922. The “WST assay raw reading” value (ACHN cells [1]; 100uM) was 0.69 and 0.729, the “WST assay viability relative to con = 100” value (ACHN cells [1]; 100uM) was 69.3905 and the viability at 0.01 µM [2, 7] was 96.5%. For the same compound, the viability at 0.01 µM [2, 8] was 96%, the viability at 0.1 µM [2, 7] was 110% and the viability at 0.1 µM [2, 8] was 106%. It also gave a viability at 1 µM [2, 7] of 104%, a viability at 1 µM [2, 8] of 102% and a viability at 10 µM [2, 7] of 101%. The viability at 10 µM [2, 8] was 102%, the viability at 50 µM [2, 7] was 118% and the viability at 50 µM [2, 8] was 113%. For the same compound, the viability at 100 µM [2, 7] was 64.9%, the viability at 100 µM [2, 8] was 67.1% and the IC50 ([2]; WST-based viability assay, read-out: cytotoxicity IC50) was over 20000 nM. The “WIPI2-GFP-p62 colocalization, AVG of cells of 50” value [3] was 30.6667, the “WIPI2-GFP-p62 colocalization, percentage AVG” value [3] was 61.3333% and the “WIPI2-GFP-p62 colocalization, cells of 50 cells counted” value ([3]; single experiments) was 28 and 23 and 41. For the same compound, the “Normalized LC3 II/I A.F. index” value [4] was 4.2, the “Normalized p62 A.F. index” value [4] was 2.8 and the “wound area, Average” value (ACHN cells [5]; 0h) was 2209762. The “wound area, Average %” value (ACHN cells [5]; 0h) was 0%, the wound area (ACHN cells [5]; 0h) was 2287288 and 2132236 and the “wound area, Average” value (ACHN cells [5]; 4h) was 1966032. The “wound area, Average %” value (ACHN cells [5]; 4h) was 0%, the wound area (ACHN cells [5]; 4h) was 2073039 and 1859025 and the “wound area, Average” value (ACHN cells [5]; 12h) was 1228896. For the same compound, the “wound area, Average %” value (ACHN cells [5]; 12h) was 0%, the wound area (ACHN cells [5]; 12h) was 1307559 and 1150234 and the “wound area, Average” value (ACHN cells [5]; 24h) was 122450. The “wound area, Average %” value (ACHN cells [5]; 24h) was 0%, the “LC3 puncta formation, AVG of cells of 50” value [6] was 38.6667 and the “LC3 puncta formation, percentage AVG” value [6] was 77.3333%. For the same compound, the “p62-LC3 colocalization, AVG of cells of 50” value [6] was 37, the “p62-LC3 colocalization, percentage AVG” value [6] was 74% and the “p62 puncta formation, AVG of cells of 50” value [6] was 40.3333. The “p62 puncta formation, percentage AVG” value [6] was 80.6667%, the “LC3 puncta formation, cells of 50 cells counted” value ([6]; single experiments) was 29 and 49 and 38 and the “p62-LC3 colocalization, cells of 50 cells counted” value ([6]; single experiments) was 36 and 39. For the same compound, the “p62 puncta formation, cells of 50 cells counted” value ([6]; single experiments) was 46 and 36 and 39.

In the case of `O=C(CCCc1ccccc1)NCCOCCOCCOCCNC[C@@H](O)COc1ccc(OCc2ccccc2)c(OCc2ccccc2)c1` [PBA-1106], the p62 self-oligomerization (p62) is reported as “triggered its self-oligomerization”, the “p62 puncta structures (per cell)” value (Ub^+ and p62^+ puncta) is reported as 14 ± 4.2 and the DC50 (tauP301L) is reported as 1 to 10 nM. For the same compound, the “Dmax,24 hr of tauP301L degradation” value (tauP301L) was 100 nM.
